# Results: paper PMC7557804, “The Anti-Microbial Peptide (Lin-SB056-1)2-K Reduces Pro-Inflammatory Cytokine Release through Interaction with Pseudomonas aeruginosa Lipopolysaccharide” (Antibiotics, 2020)
# Entries after “also recorded” stand apart in the source; their conditions may differ.
# Legend:
# [1] = LAL assay, LPS neutralization; format: biochemical, Escherichia coli; conditions: 2.4 to 19.25 μM peptide; E. coli 011:B4 LPS 2 EU/mL; 30 min, 37 °C
# Description: The ability of lin-SB056-1 and (lin-SB056-1)2-K to neutralize the activity of LPS was analyzed using a standardized LAL assay (Pierce LAL chromogenic endotoxin quantitation kit; Thermo Fisher Scientific). Peptides at different concentrations (2.4 to 19.25 μM) were pre-incubated with E. coli 011:B4 LPS (2 Endotoxin Units (EU)/mL; EU = unit of measurement for endotoxin activity) for 30 min (37 °C, shaking) in order to promote the interaction between the two molecules. LPS alone was used as positive control. Following incubation, peptide-treated and untreated samples were mixed with the LAL reagent (1:1 ratio) and incubated for 10 min at 37 °C. Subsequently, 100 μL of the chromogenic substrate were added and incubated with the samples for 6 min. The reaction was terminated by adding 100 μL of acetic acid (25% v/v), and absorbance was measured at 405 nm ([…]) using a microplate reader (Multiscan FC, Life Technologies Italia, Monza, Italy). The amount of peptide-sequestered LPS was determined as follows: LPS neutralization (%) = [100 − (ODpeptide/ODpositive control × 100)].
# THP-1 macrophages = experiment: Cytotoxicity (LDH release) towards THP-1 macrophages; format: cell-based, Human; conditions: LPS-stimulated THP-1 macrophages, 4 h
# Description: (§1) Human non-small-cell lung adenocarcinoma A549 cells (ATCC CCL-185; LGC Standards, Milan, Italy) and human monocytic THP-1 cells (ATCC TIB-202; LGC Standards) were cultured in tissue culture flasks in Dulbecco’s modified essential medium (DMEM) (Euroclone, Milan, Italy) and RPMI 1640 medium (Euroclone), respectively. Both media were supplemented with 2 mM L-glutamine (Euroclone) and 10% heat-inactivated fetal bovine serum (FBS; Euroclone). Confluent monolayers were detached from the culture flask with 0.25% trypsin/1 mM EDTA solution (Euroclone), suspended in complete culture medium and seeded into flat-bottom 96-well plates at a final density of 1 × 10^4 cells/well (A549) and 2 × 10^4 cells/well (THP-1). A549 cells were cultured for 24 h at 37 °C, 5% CO2 in order to allow adhesion and formation of semi-confluent monolayers. THP-1 cells were cultured for 3 days (37 °C, 5% CO2) in the presence of 100 nM TPA (Sigma-Aldrich, St. Louis, MO, USA) to induce their differentiation into macrophage-like cells.
# (§2) The cytotoxicity of lin-SB056-1 and (lin-SB056-1)2-K towards A549 and THP-1 cells was evaluated to exclude a possible correlation between reduction in cytokine levels and decrease in cell numbers. To this end, culture supernatants of cells stimulated with LPS in the presence of the peptides were employed to quantify the amount of cytoplasmic LDH released by dead cells. Cells incubated in culture medium alone or in the presence of LPS served as an indication of spontaneous cell death (cell viability controls), while cells treated with a commercial lysis buffer (Pierce LDH cytotoxicity assay kit, Thermo Fisher Scientific) were used as cell death control (100% cell lysis). The enzymatic activity of LDH in cell supernatants was measured using the Pierce LDH cytotoxicity assay kit (Thermo Fisher Scientific) following manufacturer’s instructions. The cytotoxic effect was determined as follows: cytotoxicity (%) = [(LDH activity of A/LDH activity of B) × 100], where A represents peptide-treated or untreated cells (both in the presence and absence of LPS), and B corresponds to the cell lysis control.
# P. aeruginosa = conditions: previous studies; cited from earlier work
# Description: (§3) The global issue of anti-microbial resistance coupled with the lack of new treatments for bacterial infections has stimulated interest in the use of AMPs for therapeutic purposes. Due to their unique mechanism(s) of action and wide spectrum of biological activities, AMPs are emerging as a promising alternative to conventional anti-microbial agents for the management of antibiotic-resistant and biofilm-associated infections. Although mainly intended for topical use due to potential toxicity and reduced stability under physiological conditions, many different peptides with anti-micro ...
# mammalian cells = conditions: cited from earlier work
# Description: as §3
# A549 cells [2] = experiment: LPS-induced cytokine production by A549 cells (bead-based multiplex immunoassay); format: cell-based, Human; conditions: LPS 800 ng/mL, 4 h, 37 °C, peptide 4.8 to 19.25 μM
# Description: as §1
# The anti-inflammatory potential of lin-SB056-1 and (lin-SB056-1)2-K was assessed by evaluating their ability to reduce LPS-induced production of pro-inflammatory cytokines by A549 cells and THP-1 macrophages. In order to ensure cytokine production, cell monolayers were stimulated with LPS from P. aeruginosa serotype 10 (purified by phenol extraction; Sigma-Aldrich, Milano, Italy) at a final concentration of 10 ng/mL (THP-1) and 800 ng/mL (A549). LPS concentrations used in the experiments were chosen based on preliminary assays aimed at identifying the minimum dose of the molecule able to stimulate cytokine production after 4 h of exposure. In order to assess the inhibitory activity of peptides on cytokine production, cell monolayers were incubated in complete culture medium in the presence of LPS and different concentrations of lin-SB056-1 and (lin-SB056-1)2-K (4.8 to 19.25 μM) for 4 h (37 °C, 5% CO2). Cells incubated in the presence of LPS alone were used as positive (cytokine production) control. Following incubation, cell culture supernatants were collected, filter sterilized (0.22 µm) and employed for the quantification of cytokines and the assessment of cell viability.
# Different pro-inflammatory cytokines (i.e., IL-1β, IL-6, IL-8 and TNF-α) were quantified in cell culture supernatants through a bead-based multiplex immunoassay (LEGENDplex multi-analyte flow assay kit; BioLegend, San Diego, CA, USA) following manufacturer’s instructions. Briefly, 25 μL of cytokine standard or cell supernatant were incubated with 25 μL of anti-cytokine conjugated beads into V-bottom 96-well plates for 2 h. Following incubation, the plates were washed and subsequently incubated with the detection antibody (25 μL/well) for 1 h. A volume of 25 μL of streptavidin-phycoerythrin was added to each well, and the plates were incubated for another 30 min in the dark. Following consecutive washing steps, the beads were resuspended in the LEGENDplex wash buffer and the samples were analyzed by flow cytometry (BD Accuri C6 flow cytometer; BD Biosciences, Mountain View, CA, United States). Data were acquired with the BD Accuri C6 software (BD Biosciences) (300 events per analyte) and analyzed with the LEGENDplex software (BioLegend). Minimum detectable concentration (MDC+2STDEV) for the tested cytokines were as follows: IL-1β, 0.65 + 0.47 pg/mL; IL-6, 0.97 + 1.46 pg/mL; IL-8, 1.90 + 0.65 pg/mL; TNF-α, 0.88 + 0.27 pg/mL.
# [3] = BODIPY TR cadaverine (BC) fluorescent displacement assay, LPS binding; parameters: species or system P. aeruginosa; conditions: P. aeruginosa serotype 10 LPS 10 µg/mL, BC 10 µM; 50 mM Tris-HCl, pH 7.4; 25 °C; excitation 580 nm, emission 620 nm; mean of three independent experiments, SD not exceeding 5%
# Description: Measurement of the ability of lin-SB056-1 and its dendrimeric derivative to bind P. aeruginosa serotype 10 LPS (Sigma-Aldrich) in vitro was performed by a fluorescent displacement assay using the BODIPY TR cadaverine (BC) probe (5-(((4-(4,4-difluoro-5-(2-thienyl)-4-bora-3a,4a-diaza-s-indacene-3-yl)phenoxy)acetyl)amino)pentylamine, hydrochloride); Thermo Fisher Scientific), as described elsewhere. BC binds to LPS by recognizing the lipid A portion and the probe fluorescence is quenched. When a peptide able to interact with LPS is added, BC is displaced from the complex and its fluorescence increases. LPS binding assays were carried out in 50 mM Tris-HCl buffer, pH 7.4. Aliquots of the peptides at a final concentration of 0.1 μM were successively added to a cuvette containing the LPS/BC complex (10 µg/mL P. aeruginosa LPS and 10 µM BC). Fluorescence measurements were performed with a Perkin-Elmer LS 55B spectrofluorometer (Perkin-Elmer, Waltham, MA, USA) using a thermostated (25 °C) cuvette apparatus (excitation: 580 nm; emission: 620 nm).
# A549 cells [4] = experiment: Cytotoxicity (LDH release) towards A549 cells; format: cell-based, Human; conditions: LPS-stimulated A549, 4 h
# Description: as §1, §2
# sepsis in animal models = conditions: by sequestering soluble LPS; cited from earlier work
# Description: While the anti-microbial activities of AMPs are becoming increasingly understood, the mechanisms underlying their anti-inflammatory effect still need to be fully elucidated. Nevertheless, the anti-inflammatory mode of action of many peptides has been attributed to their ability to efficiently bind LPS and/or block LPS recognition by effector cells. […] Analogous LPS-ne ...
# [5] = in vitro; cited from earlier work
# Description: While the anti-microbial activities of AMPs are becoming increasingly understood, the mechanisms underlying their anti-inflammatory effect still need to be fully elucidated. Nevertheless, the anti-inflammatory mode of action of many peptides has been attributed to their ability to efficiently bind LPS and/or block LPS recognition by effector cells. […] Analogous LPS-ne ... || It is generally thought that the dendrimeric architecture leads to improved biological activity due to a higher local concentration of the active sequence. Possibly, thanks to its conformational plasticity, the dendrimeric organization might maximize target binding (e.g., LPS) through electrostatic interactions, leading to greater biological effects. Nevertheless, we cannot exclude a role of stability on the ability of dendrimeric peptides to establish solid interactions with LPS under specific experimental conditions. For instance, the stronger LPS-binding affinity of (lin-SB056-1 ...
# [6] = up to 19.25 μM (highest tested), 37 °C, 5% CO2, relative to cell lysis control, at least three independent experiments
Substance,LPS neutralization / LAL activity [1],"cell death (LDH release), with LPS (THP-1 macrophages; [6])","toxicity (THP-1 macrophages; up to 19.25 μM, LDH release)",anti-microbial / anti-biofilm activity (P. aeruginosa),cytotoxicity (mammalian cells),effect on IL-6 release (A549 cells [2]),effect on IL-8 release (A549 cells [2]; lin-SB056-1 decrease at 19.25 μM (highest tested)),ED50 (Effective Displacement; peptide concentration displacing half of the BC) [3],"cell death (LDH release), with LPS (A549 cells [4]; [6])","toxicity (A549 cells [4]; up to 19.25 μM, LDH release)",protection from sepsis (sepsis in animal models),LPS-induced pro-inflammatory responses [5]
"KWKIRVRLSA-NH2 [lin-SB056-1, semi-synthetic peptide lin-SB056-1]",differently from lin-SB056-1,less than 5%,no detectable toxicity,effective against biofilms; also recorded: promising anti-microbial activity,low cytotoxicity,only a decrease in IL-8 levels was recorded,decrease in IL-8 levels,~1.75 µM,less than 5%,no detectable toxicity,,
"LL-37: well-known human cathelicidin LL-37 (LLGDFFRKSKEKIGKEFKRIVQRIKDFLRNLVPRTES; Antibacterial peptide LL-37; UniProt P49913 134-170, looked up)",,,,,,,,,,,protect from sepsis,suppress LPS-induced pro-inflammatory responses
